From EP0190496A2, “Piperidine derivatives having a gastro-intestinal activity” (BEECHAM GROUP PLC, priority 1984, dated 1986)
Counter-ions that a name gives are not always drawn. Like-named read-outs stand apart in the source and are kept apart here.

How the values were obtained:
[1] = system: ethanol-induced gastric mucosal erosive damage in the rat; test: Inhibition of ethanol-induced gastric mucosal erosive damage (antiulcer test); assay type: in vivo; conditions: for inhibition in vivo at 25 µmol/kg: read-out: % Inhibition of gastric erosions
Text: The object of the experiment was to test the ability of drugs to inhibit a state of gastric submucosal haemorrhage induced by absolute ethanol in the conscious rat.
The procedure used was as follows. Male rats, preferably Wistars, were fasted overnight in wire mesh bottom cages, so as to prevent copraphagy. Water was allowed ad. libitum. Six or seven rats per cage were regarded as suitable, and the weight range of the rats used was between 175 and 300g. Water was removed one hour prior to treatment. The rats were then randomly allocated to their respective treatment groups, so that there were no less than five rats per group. One control group was always included.
Each rat was pre-dosed with lml/100g of control or test drug, dissolved or suspended in 0.5% methyl cellulose or 1% Tween 80 in water, via an oral dosing needle. Ninety minutes later each rat was dosed with lml/rat p.o. of absolute ethanol. Ten minutes after the absolute ethanol, the rats were killed by an intracardiac injection of Expiral^*. The stomachs were excised, cut open along the greater curvature to expose the mucosal surface, washed in tap water to remove debris, then stretched on a cork board for examination.
A subjective macroscopic examination of the stomach was carried out with a damage score being allocated to each stomach. Two observers were usually used, one of whom scored the results in a 'blinded' manner. The results were then analysed by the Mann-Whitney U-test, with p<0.05 being regarded as statistically significant.
^*(sodium pentobarbitone solution 200mg/ml)

[2] = system: Heidenhain pouch of the dog; test: Gastro-intestinal motility: intraluminal pressure in the Heidenhain pouch; assay type: in vivo; conditions: dose of 0.5mg/kg i.v., conscious fasted dog, chronic Heidenhain pouch
Procedure: Pressure changes were recorded via a saline filled catheter inserted, with airtight closure, into the fistula of a chronic Heidenhain pouch of the previously fasted and lightly restrained conscious dog. The catheter was connected to a physiological pressure transducer and pressure changes recorded on a hot wire pen recorder. Compounds were administered when the motility was in a phase of relatively low activity and the dose range determined which induced an increase in the amplitude of rhythmical contractions for a period of at least 4-5 minutes.

[3] = system: Cold restraint stress - induced gastric erosions; test: Cold restraint stress-induced gastric erosions (antiulcer test); assay type: in vivo, Male Wistar rats; conditions: Oral Dose 25 µmol/kg in 0.5% methylcellulose, 30 min before 2.5 hours at 4°C in restraint; mucosal damage scored visually; * p<0.05, ** p<0.01 (Wilcoxon)
Procedure: Male Wistar rats, 175-225g bodyweight are used. Forty eight hours prior to testing, animals are placed in mesh-bottomed cages with 10-12 animals per cage. Twenty-four hours prior to testing, animals are placed in the dark at a temperature of l7 °C. Sixteen hours prior to testing, food is removed from the cages. Drugs are made up in 0.5% methylcellulose, and adminstered at a volume of 1.0ml/100g bodyweight. Eight rats per group are used, with usually 1 control group and 2 test groups. Animals are placed in Bollman type restraining cages and arranged in a vertical position. Thirty minutes after dosing the animals are placed in an ambient temperature of 4 °C for 2.5 hours. At the end of this time the rats are sacrificed, the stomachs removed, cut open and pinned out on cork boards. Mucosal damage is assessed visually and scored on a subjective scale. Statistical differences between control and test groups are assessed using a Wilcoxon Ranking Test.

[4] = Oral Dose 25 µmol/kg, 90 min before 1 ml/rat p.o. absolute ethanol, stomach scored 10 min later, * p<0.05, ** p<0.01, *** p<0.001 (Mann-Whitney U-test)

For `Cc1ccccc1[C@@H]1CCN(Cc2ccccc2)C[C@H]1COc1ccc2c(c1)OCO2` (racemic) [Example 17, (±)-trans-1-Benzyl-3-(3',4'-methylenedioxyphenoxy-methyl)-4-(2'-methylphenyl)piperidine hydrochloride], the inhibition in vivo at 25 µmol/kg [1, 4] was 31%.
`Fc1ccc(C2=CCN(Cc3ccccc3)CC2COc2ccc3c(c2)OCO3)cc1` (racemic) [Example 11, (±)-1-Benzyl-4-(4'-fluorophenyl)-3-(3,4-methylenedioxy-phenoxymethyl)-1,2,3,6-tetrahydropyridine hydrochloride] gave an inhibition in vivo at 25 µmol/kg [1, 4] of 26%.
`Cc1ccc(OC[C@@H]2CN(Cc3ccc(F)cc3)CC[C@H]2c2ccc(F)cc2)cc1` (racemic) [Example 19, (±)-trans-1-(4'-Fluorobenzyl)-4-(4'-fluorophenyl)-3-(4'-methylphenoxymethyl)piperidine maleate] showed an inhibition in vivo at 25 µmol/kg ([1]; Rattus norvegicus, po) of 69%.
With `Fc1ccc([C@@H]2CCN(Cc3ccccc3)C[C@H]2COc2ccc3c(c2)OCO3)cc1` (single isomer, unassigned) [Example 1, (-)-trans-l-Benzyl-4-(4'-fluorophenyl)-3-(3',4'-methylenedioxyphenoxymethyl)piperidine hydrochloride] the “increase in the amplitude of rhythmical contractions for a period of at least 4-5 minutes” value [2] was “active”, the “% Inhibition of gastric erosions” value [3] was 53** % and the inhibition in vivo at 25 µmol/kg [1, 4] was 66%.
With “(-)cis-l-Benzyl-4-(4'-fluorophenyl)-3-(3',4'-methylene- dioxyphenoxymethyl)piperidine hydrochloride [Example 8]” the “% Inhibition of gastric erosions” value [1, 4] was 46.8* %.
Compound `Cc1ccc(OC[C@@H]2CN(Cc3ccccc3)CC[C@H]2c2ccc(F)cc2)cc1` (racemic) [Example 18, (±)-trans-1-Benzyl-4-(4'-fluorophenyl)-3-(4'-methylphenoxymethyl)piperidine maleate] has an inhibition in vivo at 25 µmol/kg ([1]; Rattus norvegicus, po) of 21%.
In the case of `c1ccc(CN2CC[C@@H](c3ccccc3)[C@H](COc3ccc4c(c3)OCO4)C2)cc1` (single isomer, unassigned) [Example 15, (-) trans-l-Benzyl-3-(3',4'-methylenedioxyphenoxy-methyl)-4-phenylpiperidine hydrochloride], the inhibition in vivo at 25 µmol/kg [1, 4] is reported as 67%.
In the case of “(+)cis-1-Benzyl-4-(4'-fluorophenyl)3-(3',4'-methylene- dioxyphenoxymethyl)piperidine hydrochloride [Example 7]”, the “% Inhibition of gastric erosions” value [1, 4] is reported as 63.1** %.
“(+) cis-l-(4'-Fluorobenzyl)-4-(4'-fluorophenyl)-3-(3', 4'-methylenedioxyphenoxymethyl)piperidine hydrochloride [Example 12]” was tested, and the “% Inhibition of gastric erosions” value [1, 4] was 84.9** %.
“(-) cis-l-(4'-Fluorobenzyl)-4-(4'-fluorophenyl)-3-(3', 4'-methylenedioxyphenoxymethyl)piperidine hydrochloride [Example 13]” was tested, and the “% Inhibition of gastric erosions” value [1, 4] was 46** %.
Compound `Fc1ccc(C2CCN(Cc3ccccc3)CC2COc2ccc3c(c2)OCO3)cc1` (single isomer, unassigned; (+)) [Example 5, (+)trans-l-Benzyl-4-(4'-fluorophenyl)-3-(3',4'-methylenedioxyphenoxymethyl)piperidine hydrochloride] has an inhibition in vivo at 25 µmol/kg [1, 4] of 30%.
For `Fc1ccc(CN2CC[C@@H](c3ccccc3)[C@H](COc3ccc4c(c3)OCO4)C2)cc1` (single isomer, unassigned) [Example 16, (-) trans-l-(4'-Fluorobenzyl)-3-(3',4'-methylenedioxy-phenoxymethyl)-4-phenylpiperidine hydrochloride], the inhibition in vivo at 25 µmol/kg [1, 4] was 83%.
Work on `Fc1ccc([C@@H]2CCN(Cc3ccccc3F)C[C@H]2COc2ccc3c(c2)OCO3)cc1` (single isomer, unassigned) [Example 14, (-) trans-l-(2'-Fluorobenzyl)-4-(4'-fluorophenyl)-3-(3',4-methylenedioxyphenoxymethyl)piperidine hydrochloride] yielded an inhibition in vivo at 25 µmol/kg [1, 4] of 39%.
`Fc1ccc(CN2CC[C@@H](c3ccc(F)cc3)[C@H](COc3ccc4c(c3)OCO4)C2)cc1` (single isomer, unassigned) [Example 9, (-) trans-l-(4'-fluorobenzyl)-4-(4'-fluorophenyl)-3-(3',4'-methylenedioxyphenoxymethyl)piperidine hydrochloride] was tested, and the inhibition in vivo at 25 µmol/kg [1, 4] was 71%.
Work on `Fc1ccc(OC[C@@H]2CN(Cc3ccccc3)CC[C@H]2c2ccc(F)cc2)cc1` (racemic) [Example 21, (±)-trans-1-Benzyl-3-(4'-fluorophenoxymethyl)-4-(4'-fluorophenyl)piperidine maleate] yielded an inhibition in vivo at 25 µmol/kg ([1]; Rattus norvegicus, po) of 27%.
`Fc1ccc(CN2CC[C@@H](c3ccc(F)cc3)[C@H](COc3ccccc3)C2)cc1` (racemic) [Example 20, (±)-trans-1-(4'-Fluorobenzyl)-4-(4'-fluorophenyl)-3-phenoxymethylpiperidine maleate] showed an inhibition in vivo at 25 µmol/kg ([1]; Rattus norvegicus, po) of 70%.
`COc1ccccc1[C@@H]1CCN(Cc2ccccc2)C[C@H]1COc1ccc2c(c1)OCO2` (racemic) [Example 2, (±)trans 1-Benzyl-4-(2'-methoxyphenyl)-3-(3',4'-methylenedioxyphenoxymethyl)piperidine hydrochloride] was tested, and the “% Inhibition of gastric erosions” value [3] was 58* % and the inhibition in vivo at 25 µmol/kg [1, 4] was 47.7%.
With `Fc1ccc(CN2CC[C@@H](c3ccc(F)cc3)[C@H](COc3ccc(F)cc3)C2)cc1` (racemic) [Example 22, (±)-trans-1-(4'-Fluorobenzyl)-3-(4'-fluorophenoxy-methyl)-4-(4'-fluorophenyl)piperidine maleate] the inhibition in vivo at 25 µmol/kg ([1]; Rattus norvegicus, po) was 53%.
